Among the data in patent US12350270B2, “Antimalarial agents” (Merck Sharp & Dohme LLC, priority 2019, dated 2025) are EC50 values, retold here.

In the test the test system is parasites (ring stage, in human red blood cell culture). Briefly: Parasite LDH growth assay (antiparasite potency, Parasite Assay). Particulars: Plasmodium falciparum, Erythrocyte, 72 h, 0.7% rings, 2% haematocrit, 72 hours at 37° C., LDH readout of parasite growth. The format is cell-based, Plasmodium falciparum. In short, it runs like this: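 Ring-stage parasites at 0.7% parasitemia and 2% haematocrit, in RPMI-Hepes/bicarbonate with 5% heat-inactivated human serum and 0.5% albumax, were added to compound-containing medium. Cultures grew 72 h at 37 °C in gassed humidified boxes. Plates were then frozen overnight at −80 °C, thawed 4 h, and growth was measured by LDH assay.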

For the compound `CCC1(CC)CC(=O)N([C@@H]2CCOc3ccc(C(=O)NC4c5ccccc5CC4(F)F)cc32)C(=N)N1` (stereo partly drawn) [Example 152, (4R)-4-(4,4-diethyl-2-imino-6-oxo-hexahydropyrimidin-1-yl)-N-(2,2-difluoroindan-1-yl)chromane-6-carboxamide], the midpoint of the response, the EC50, lay at 7.7 nM. Under `CC1(C)CC(=O)N([C@@H]2CCOc3ccc(C(=O)N[C@@H]4c5cc(Cl)ccc5OC[C@H]4O)cc32)C(=N)N1` [Example 153, (4R)-N-[(3S,4R)-6-chloro-3-hydroxy-chroman-4-yl]-4-(2-imino-4,4-dimethyl-6-oxo-hexahydropyrimidin-1-yl)chromane-6-carboxamide] stands 11.5 nM; under `CCC1(CC)CC(=O)N([C@@H]2CCOc3ccc(C(=O)N[C@@H]4c5ccccc5C5(CC5)[C@H]4O)cc32)C(=N)N1` [Example 154, (4R)-4-(4,4-diethyl-2-imino-6-oxo-hexahydropyrimidin-1-yl)-N-[(1′R,2′R)-2′-hydroxyspiro[cyclopropane-1,3′-indane]-1′-yl]chromane-6-carboxamide], 0.7 nM; under `CCC1(CC)CC(=O)N([C@@H]2CCOc3ccc(C(=O)N[C@H]4c5ccccc5C5(CC5)[C@@H]4O)cc32)C(=N)N1` [Example 155, (4R)-4-(4,4-diethyl-2-imino-6-oxo-hexahydropyrimidin-1-yl)-N-[(1′S,2′S)-2′-hydroxyspiro[cyclopropane-1,3′-indane]-1′-yl]chromane-6-carboxamide], 82.5 nM. Under `CCC1(CC)CC(=O)N([C@@H]2CCCc3ccc(C(=O)N[C@H]4CC(C)(C)Oc5ccccc54)cc32)C(=N)N1` [Example 156, (4R)-4-(4,4-diethyl-2-imino-6-oxo-hexahydropyrimidin-1-yl)-N-[(4S)-2,2-dimethylchroman-4-yl]tetralin-6-carboxamide] stands 1.1 nM. For the compound `CCC1(CC)CC(=O)N([C@@H]2C[C@@H](OC)c3ccc(C(=O)N[C@@H]4c5ccccc5C[C@@]4(C)O)cc32)C(=N)N1` [Example 157, (1R,3R)-3-(4,4-diethyl-2-imino-6-oxo-hexahydropyrimidin-1-yl)-N-[(1R,2R)-2-hydroxy-2-methyl-indan-1-yl]-1-methoxy-indane-5-carboxamide], the response was half-maximal at 19.9 nM (EC50). Turning to `CCC1(CC)CC(=O)N([C@@H]2C[C@H](OC)c3ccc(C(=O)N[C@@H]4c5ccccc5C[C@@]4(C)O)cc32)C(=N)N1` [Example 158, (1S,3R)-3-(4,4-diethyl-2-imino-6-oxo-hexahydropyrimidin-1-yl)-N-[(1R,2R)-2-hydroxy-2-methyl-indan-1-yl]-1-methoxy-indane-5-carboxamide], the EC50 (as a rule, the midpoint of the concentration-response curve) worked out at 0.9 nM. As for `CCC1(CC)CC(=O)N([C@@H]2CCc3ccc(C(=O)N[C@@H]4c5ccccc5OC(C)(C)[C@H]4O)cc32)C(=N)N1` [Example 159, (3R)-3-(4,4-diethyl-2-imino-6-oxo-hexahydropyrimidin-1-yl)-N-[(3S,4R)-3-hydroxy-2,2-dimethyl-chroman-4-yl]indane-5-carboxamide], a half-maximal response (EC50) required 0.5 nM. Take `CC1(C)CC(=O)N([C@@H]2CC(C)(C)c3ccc(C(=O)N[C@@H]4c5ccccc5OC(C)(C)[C@H]4O)cc32)C(=N)N1` [Example 160, (3R)-N-[(3S,4R)-3-hydroxy-2,2-dimethyl-chroman-4-yl]-3-(2-imino-4,4-dimethyl-6-oxo-hexahydropyrimidin-1-yl)-1,1-dimethyl-indane-5-carboxamide]: a half-maximal effect (EC50) was put at 8.3 nM. `CCC1(CC)CC(=O)N(C2CCCc3ccc(C(=O)N[C@@H]4c5ccccc5OC[C@@]4(C)O)cc32)C(=N)N1` (stereo partly drawn) [Example 161, 8-(4,4-diethyl-2-imino-6-oxotetrahydropyrimidin-1(2H)-yl)-N-((3S,4R)-3-hydroxy-3-methylchroman-4-yl)-5,6,7,8-tetrahydronaphthalene-2-carboxamide] returned a concentration giving a half-maximal response (EC50) of 0.8 nM. As to `CC1(C)CC(=O)N([C@H]2c3cc(C(=O)N[C@@H]4c5ccccc5OC(C)(C)[C@H]4O)ccc3CC2(C)C)C(=N)N1` [Example 162, (3R)-N-[(3S,4R)-3-hydroxy-2,2-dimethyl-chroman-4-yl]-3-(2-imino-4,4-dimethyl-6-oxo-hexahydropyrimidin-1-yl)-2,2-dimethyl-indane-5-carboxamide], it took 7.5 nM to reach a half-maximal effect (EC50). In turn, `CCC1(CC)CC(=O)N([C@H]2c3cc(C(=O)N[C@@H]4c5ccccc5C[C@@]4(C)O)ccc3OC2(C)C)C(=N)N1` [Example 163, (3S)-3-(4,4-diethyl-2-imino-6-oxo-hexahydropyrimidin-1-yl)-N-[(1R,2R)-2-hydroxy-2-methyl-indan-1-yl]-2,2-dimethyl-3H-benzofuran-5-carboxamide] gave an EC50 of 8.4 nM. `CCC1(CC)CC(=O)N([C@@H]2C[C@@H](C)Oc3ccc(C(=O)N[C@@H]4c5ccccc5C[C@@]4(C)O)cc32)C(=N)N1` [Example 164, (2R,4R)-4-(4,4-diethyl-2-imino-6-oxo-hexahydropyrimidin-1-yl)-N-[(1R,2R)-2-hydroxy-2-methyl-indan-1-yl]-2-methyl-chromane-6-carboxamide] returned a half-maximal effective concentration (EC50) of 2.4 nM. For the compound `CCC1(CC)CC(=O)N([C@H]2c3cc(C(=O)N[C@@H]4c5ccccc5C[C@H]4O)ccc3CC[C@@H]2OC)C(=N)N1` [Example 165, (3S,4S)-4-(4,4-diethyl-2-imino-6-oxo-hexahydropyrimidin-1-yl)-N-[(1R,2R)-2-hydroxyindan-1-yl]-3-methoxy-tetralin-6-carboxamide], the half-maximal effective concentration (EC50) is 3.4 nM. Under `CC[C@]1(C)CC(=O)N([C@@H]2c3cc(C(=O)N[C@@H]4c5ccccc5OC(C)(C)[C@H]4O)ccc3C[C@@H]2C)C(=N)N1` [Example 166, (2S,3S)-3-[(4R)-4-ethyl-2-imino-4-methyl-6-oxo-hexahydropyrimidin-1-yl]-N-[(3S,4R)-3-hydroxy-2,2-dimethyl-chroman-4-yl]-2-methyl-indane-5-carboxamide] stands 154 nM; under `CC[C@]1(C)CC(=O)N([C@@H]2c3cc(C(=O)N[C@@H]4c5ccccc5OC(C)(C)[C@H]4O)ccc3C[C@H]2C)C(=N)N1` [Example 167, (2R,3S)-3-[(4R)-4-ethyl-2-imino-4-methyl-6-oxo-hexahydropyrimidin-1-yl]-N-[(3S,4R)-3-hydroxy-2,2-dimethyl-chroman-4-yl]-2-methyl-indane-5-carboxamide], 250 nM. The same measure for `CC[C@]1(C)CC(=O)N([C@H]2c3cc(C(=O)N[C@@H]4c5ccccc5OC(C)(C)[C@H]4O)ccc3C[C@H]2C)C(=N)N1` [Example 168, (2R,3R)-3-[(4R)-4-ethyl-2-imino-4-methyl-6-oxo-hexahydropyrimidin-1-yl]-N-[(3S,4R)-3-hydroxy-2,2-dimethyl-chroman-4-yl]-2-methyl-indane-5-carboxamide]: 0.4 nM; for `CC[C@]1(C)CC(=O)N([C@H]2c3cc(C(=O)N[C@@H]4c5ccccc5OC(C)(C)[C@H]4O)ccc3C[C@@H]2C)C(=N)N1` [Example 169, (2S,3R)-3-[(4R)-4-ethyl-2-imino-4-methyl-6-oxo-hexahydropyrimidin-1-yl]-N-[(3S,4R)-3-hydroxy-2,2-dimethyl-chroman-4-yl]-2-methyl-indane-5-carboxamide]: 0.3 nM. Take `CC[C@]1(C)CC(=O)N([C@H]2C[C@H](C)c3ccc(C(=O)N[C@@H]4c5ccccc5OC(C)(C)[C@H]4O)cc32)C(=N)N1` [Example 170, (1S,3S)-3-[(4R)-4-ethyl-2-imino-4-methyl-6-oxo-hexahydropyrimidin-1-yl]-N-[(3S,4R)-3-hydroxy-2,2-dimethyl-chroman-4-yl]-1-methyl-indane-5-carboxamide]: the concentration for a half-maximal effect (EC50) came to 184 nM. The same measure for `CC[C@]1(C)CC(=O)N([C@@H]2C[C@@H](C)c3ccc(C(=O)N[C@@H]4c5ccccc5OC(C)(C)[C@H]4O)cc32)C(=N)N1` [Example 171, (1R,3R)-3-[(4R)-4-ethyl-2-imino-4-methyl-6-oxo-hexahydropyrimidin-1-yl]-N-[(3S,4R)-3-hydroxy-2,2-dimethyl-chroman-4-yl]-1-methyl-indane-5-carboxamide]: 0.7 nM; for `CC1(C)CC(=O)N([C@@H]2CCOc3ccc(C(=O)N[C@@H]4c5ccccc5OC(C)(C)[C@@]4(C)O)cc32)C(=N)N1` [Example 172, (4R)-N-[(3S,4R)-3-hydroxy-2,2,3-trimethyl-chroman-4-yl]-4-(2-imino-4,4-dimethyl-6-oxo-hexahydropyrimidin-1-yl)chromane-6-carboxamide]: 0.9 nM; for `CCC1(CC)CC(=O)N([C@@H]2CCOc3ccc(C(=O)N[C@@H]4c5ccccc5OC[C@H]4OC)cc32)C(=N)N1` [Example 173, (4R)-4-(4,4-diethyl-2-imino-6-oxo-hexahydropyrimidin-1-yl)-N-[(3S,4R)-3-methoxychroman-4-yl]chromane-6-carboxamide]: 2.8 nM. `CC[C@]1(C)CC(=O)N([C@H]2c3cc(C(=O)N[C@@H]4c5ccccc5C[C@H]4O)ccc3OC[C@@H]2COC)C(=N)N1` [Example 174, (3S,4R)-4-[(4R)-4-ethyl-2-imino-4-methyl-6-oxo-hexahydropyrimidin-1-yl]-N-[(1R,2R)-2-hydroxyindan-1-yl]-3-(methoxymethyl)chromane-6-carboxamide] gave an EC50 of 1.9 nM.

As to `COCC1(C)CC(N2C(=N)NC(C)(C)CC2=O)c2cc(C(=O)N[C@@H]3c4ccccc4C[C@H]3O)ccc2O1` (stereo partly drawn) [Example 175, N-[(1R,2R)-2-hydroxyindan-1-yl]-4-(2-imino-4,4-dimethyl-6-oxo-hexahydropyrimidin-1-yl)-2-(methoxymethyl)-2-methyl-chromane-6-carboxamide], the midpoint of the response, the EC50, lay at 31 nM. Take `CC[C@@]1(C)CC(=O)N(C2c3cc(C(=O)N[C@H]4CC(C)(C)Oc5ccccc54)ccc3OCC2O)C(=N)N1` (stereo partly drawn) [Example 177, N-[(4S)-2,2-dimethylchroman-4-yl]-4-[(4S)-4-ethyl-2-imino-4-methyl-6-oxo-hexahydropyrimidin-1-yl]-3-hydroxy-chromane-6-carboxamide]: the EC50 was found to be 66.9 nM.
